# In patent US11634458B2, “Peptides and compositions for use in cosmetics and medicine” (LIPOTRUE, S.L., priority 2018, dated 2023):
# Key:
# [1] = molecular target: Munc18/Syntaxin-1 (Homo sapiens, UniProt Q16623); assay: ELISA-based in vitro Munc18/Syntaxin-1 binding assay; conditions: peptide 0.1, 0.5 and 1 mM; Munc18 100 nM, Syntaxin-1 10 and 5 nM; control = 100% binding
# Procedure: The capacity of the peptides to inhibit Munc18 protein-protein interaction with Syntaxin-1, a SNARE complex protein, was functionally evaluated by means of an ELISA-based in vitro Munc18/Syntaxin-1 binding assay. Briefly, the above-mentioned peptides at 0.1, 0.5 and 1 mM were preincubated with their target protein Syntaxin-1 (GST-tagged) at 10 and 5 nM in buffer (20 mM Hepes, 150 mM NaCl, 2 mM MgC2, 2 mM DTT, 0.5% Triton-X100 and 0.5% non-fat milk) for 3 hours at RT. Meanwhile, His-tagged Munc18 was bound to a Nickel-coated 96-well plate at 100 nM and incubated at RT for 1.5 hours. Non-bound protein was subsequently washed away before blocking wells with non-fat milk in wash buffer (PBS+0.02% Triton-X100) for additional 30 minutes. GST-tagged Syntaxin-1 preincubated with the peptides was then added at 10 and 5 nM to the plate and incubated for 2 h at RT. Wells were washed three times with wash buffer before incubation with the primary antibody (GST tag polyclonal antibody—Thermofisher Scientific, Massachusetts, USA) for 45 minutes. Finally, after washing again, HRP-conjugated secondary antibody (Anti-Rabbit-IgG-HRP—Sigma, Missouri, USA) was added and incubated at RT. TMB substrate (3,3′,5,5′-Tetramethylbenzidine) was used to develop signal. […] Amount of binding of Syntaxin-1 protein to Munc18 protein was analysed by measuring absorbance at 450 nm.
# [2] = test system: myosin heavy chain; assay: Myosin heavy chain protein decrease by immunofluorescence; format: cell-based, human; conditions: vs non-treated cells; for reduction of myosin heavy chain protein levels: 48 hours
# Procedure: The potential of said peptide Ac-SEQ ID NO: 8-NH2 to decrease the expression of the protein myosin heavy chain in human skeletal muscle cells was evaluated in vitro by immunofluorescence using a specific antibody against this protein (Biotechne, USA) followed by a secondary fluorescent antibody (Thermofisher, USA). Briefly, human skeletal muscle myoblasts were seeded onto coverslips in SKM-M medium (Tebu-Bio, France) at a density of 3×10^4 cells/cm^2 and incubated overnight at standard culture conditions (37° C., 95% humidity, 5% CO2). Myoblast differentiation to myocyte was then induced with specific differentiation medium (Skeletal Muscle Cell Differentiation Medium, SKM-D medium) and monitored for 7 more days. Differentiated cells were treated with non-cytotoxic concentrations of peptide Ac-SEQ ID NO: 8-NH2 (0.05 mg/mL and 0.5 mg/mL) for additional 48 hours.
# Once incubation was finished, cells were fixed with 4% PFA and permeabilized using 0.1% (v/v) Triton (Sigma, USA). Myosin was then stained with 0.5 mg/ml myosin heavy chain antibody during 2 h at room temperature. After proper washing, actin protein was labelled with 50 μg/ml Phalloidin (red) (Sigma, USA) for 1 h and, after washing, cells were stained with 4 μg/ml of the secondary antibody Goat anti-Mouse IgG for 1 h. Finally, nuclei were stained with 3.5 μg/ml Hoescht marker for 10 min (Sigma, USA).
# Microscopic images were acquired using the 5× and 10× objectives. Three replicates were used for each condition and images of three to four fields of each coverslip were acquired using the same settings.
# Images were analyzed using Image J software. Shortly, threshold was adjusted to select myosin and mean fluorescent was measured. The number of positive cells was counted using DAPI staining. Myosin mean fluorescent intensity was divided by the number of myosin-positive cells. Finally, all data was normalized as follows to obtain the % of myosin compared to non-treated cells: % vs. control=(fluorescence per cell in treated wells/fluorescence per cell in non-treated wells)×100.
# [3] = test system: collagen type I; assay: Collagen type I production by fibroblasts (competitive ELISA); format: cell-based, human; conditions: vs non-treated cells
# Procedure: The potential of said peptide Ac-SEQ ID NO: 8-NH2 to modulate the production of collagen type I as a potential improver of skin firming was evaluated in vitro using human skin fibroblasts.
# Cell were seeded in 96-well plates at 1×10^4 cells/well and maintained for 24 h at standard culture conditions (37° C., 95% humidity, 5% CO2). After 24 h incubation, medium was removed and new medium containing the peptide Ac-SEQ ID NO: 8-NH2 at 0.01, 0.05 or 0.1 mg/mL was added to the wells concentration. Treatment lasted 24 hours or 48 hours and at the end of the assay cell culture media were collected. Cells treated only with culture medium were used as basal control (non-treated cells).
# After 24 and 48 hours of treatment the amount of collagen type I produced and released by the cells (ex-novo collagen type I synthesis) was measured in cell culture medium by means of ELISA assay. The results of the test item were compared to basal control condition (non-treated cells). The treatments were performed in triplicate in three different experimental sessions.
# The determination of collagen type I synthesis was carried out by means of a competitive ELISA method. Samples were added to enzyme wells which were pre-coated with antibodies, then the recognition antigen labeled with Horseradish peroxidase (HRP) was added; after being incubated 1 hour at 37° C., both compete with solid phase antigen and form immune complex. After washing with phosphate buffer solution, the combined HRP catalyzes Tetramethylbenzidine (TMB) into blue, and turns into yellow by the action of acid; it has an absorption peak under 450 nm wavelength and its absorbance is negatively correlated with antigen density of sample. The plates were read by microplate reader.
# The quantitative determination uses a calibration curve made-up of known and growing concentrations of standard collagen type 1. The results are expressed as collagen type I concentration (μg/ml) in 50 μL cell culture medium.
# Three trials were performed for each determination in three different experimental sessions. The % variation in collagen type I content between negative controls and samples was calculated and a direct index of the efficacy of the peptide to increase collagen I synthesis was obtained.
# Munc18/Syntaxin-1, sequence (Q16623 whole entry): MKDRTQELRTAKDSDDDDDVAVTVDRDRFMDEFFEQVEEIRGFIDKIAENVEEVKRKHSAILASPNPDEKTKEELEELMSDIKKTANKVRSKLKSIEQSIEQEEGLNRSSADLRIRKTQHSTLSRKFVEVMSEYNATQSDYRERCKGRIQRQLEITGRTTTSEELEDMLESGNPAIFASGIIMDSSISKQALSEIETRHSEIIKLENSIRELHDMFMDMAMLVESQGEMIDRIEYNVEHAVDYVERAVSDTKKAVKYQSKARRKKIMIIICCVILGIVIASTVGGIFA
substance,measurement,setting,value
Ac-His-Ala-Leu-Arg-Phe-Trp-NH2 [Ac-SEQ ID NO: 8-NH2],Maximum inhibition of Munc18-Syntaxin-1 binding,[1],37%
same,reduction of myosin heavy chain protein levels,[2]; 0.05 mg/mL,−26%
same,"myosin heavy chain protein levels (representative images, FIG. 5)",[2]; 0.05 mg/mL,reduction of myosin heavy chain protein levels
same,reduction of myosin heavy chain protein levels,[2]; 0.5 mg/mL,−38%
same,increase of collagen type I production,"[3]; 0.01 mg/mL, 24 h",9%
same,increase of collagen type I production,"[3]; 0.01 mg/mL, 48 h",16%
same,increase of collagen type I production,"[3]; 0.05 mg/mL, 24 h",31%
same,increase of collagen type I production,"[3]; 0.05 mg/mL, 48 h",29.5%
same,increase of collagen type I production,"[3]; 0.1 mg/mL, 24 h",37.5%
same,increase of collagen type I production,"[3]; 0.1 mg/mL, 48 h",56.5%
